The source of these data is article PMC5012889, “Cardiac action of the first G protein biased small molecule apelin agonist” (Biochemical Pharmacology, 2016).

Series [1] deals with T1, apelin receptor (Homo sapiens, UniProt P35414).
T1 sequence (P35414 1-380): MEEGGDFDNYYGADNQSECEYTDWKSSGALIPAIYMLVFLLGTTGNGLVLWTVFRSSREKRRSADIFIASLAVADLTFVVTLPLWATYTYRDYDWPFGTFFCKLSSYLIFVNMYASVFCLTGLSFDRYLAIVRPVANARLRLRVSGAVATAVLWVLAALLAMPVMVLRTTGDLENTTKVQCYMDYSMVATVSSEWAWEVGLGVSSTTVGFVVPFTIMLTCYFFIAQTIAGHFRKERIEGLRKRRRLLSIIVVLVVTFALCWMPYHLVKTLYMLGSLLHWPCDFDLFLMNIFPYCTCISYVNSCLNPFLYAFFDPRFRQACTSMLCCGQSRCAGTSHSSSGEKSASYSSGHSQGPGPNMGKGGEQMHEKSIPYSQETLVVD
Description: (§2) Initial binding assays were performed by Cerep (Celle L’Evescault, France) on Chinese Hamster Ovary (CHO-K1) cells expressing the human apelin receptor. Further experiments were performed on human homogenised left ventricle (HLV, 1.5 mg/ml) and rat and mouse whole heart homogenates to determine any species variability prior to in vivo experiments. […] Experiments were performed in triplicate and data analysed using GraphPad Prism 6 (GraphPad Software, Inc. La Jolla, USA). Binding affinities were calculated by the Cheng-Prusoff methodology using measured IC50 values.

The nature of series [2]: In vitro murine microsomal stability (Cyprotex). It is filed as in vitro ADME. Particulars: mouse, murine microsomes. As to the method: (§1) CMF-019 ((S)-3-[1-(1-Ethyl-propyl)-2-thiophen-2-ylmethyl-1H-benzoimidazole-5-carbonyl]-amino-5-methyl-hexanoic acid) has previously been prepared (compound number 107 from patent US20140094450, 2014) via a minor modification of the literature procedure (Fig. 2). […] Thermodynamic solubility (potassium salt) and an in vitro murine microsomal stability of CMF-019 were performed at Cyprotex (Macclesfield, UK).

For series [3], the target named is T2, apelin receptor (Mus musculus, UniProt Q9WV08).
T2 construct: from tissue; host or cells: mouse whole heart homogenate
T2 sequence (Q9WV08 1-377): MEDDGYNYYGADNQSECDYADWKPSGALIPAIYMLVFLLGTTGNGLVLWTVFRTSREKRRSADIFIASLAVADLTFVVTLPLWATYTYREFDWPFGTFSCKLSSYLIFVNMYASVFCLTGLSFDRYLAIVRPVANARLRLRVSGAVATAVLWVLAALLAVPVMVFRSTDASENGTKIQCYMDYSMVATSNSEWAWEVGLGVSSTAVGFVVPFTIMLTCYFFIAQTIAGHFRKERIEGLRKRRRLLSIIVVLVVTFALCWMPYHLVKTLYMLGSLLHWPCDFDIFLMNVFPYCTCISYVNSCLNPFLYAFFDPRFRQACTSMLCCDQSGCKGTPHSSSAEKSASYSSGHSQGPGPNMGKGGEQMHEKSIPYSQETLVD
Briefly: Competition radioligand binding, mouse whole heart homogenate.
Description: as §2

Another series deals with T3, native apelin receptor (Homo sapiens, UniProt P35414).
T3 sequence (P35414 1-380): T1 sequence (P35414 1-380)
Briefly: Competition radioligand binding, human left ventricle homogenate.

Series [4] concerns the target T4, apelin receptor (Rattus norvegicus, UniProt Q9JHG3).
T4 construct: from tissue; host or cells: rat whole heart homogenate
T4 sequence (Q9JHG3 1-377): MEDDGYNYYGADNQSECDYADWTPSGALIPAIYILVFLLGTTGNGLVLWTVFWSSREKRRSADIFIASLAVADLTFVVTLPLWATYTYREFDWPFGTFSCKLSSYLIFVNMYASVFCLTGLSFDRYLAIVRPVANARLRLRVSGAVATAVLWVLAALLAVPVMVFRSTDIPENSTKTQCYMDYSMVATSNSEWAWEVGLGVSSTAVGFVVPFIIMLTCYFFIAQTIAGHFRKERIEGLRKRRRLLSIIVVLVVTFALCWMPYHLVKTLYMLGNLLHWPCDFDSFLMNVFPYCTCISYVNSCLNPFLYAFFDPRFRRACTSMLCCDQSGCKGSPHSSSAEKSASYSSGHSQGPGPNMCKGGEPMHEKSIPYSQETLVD
Put plainly: Competition radioligand binding, rat whole heart homogenate.
Description: as §2

Series [5] addresses T1, apelin receptor. Particulars: compared to [Pyr1]apelin-13. The text has this: Statistical significance was taken as 5%.
Series [6] deals with T1, apelin receptor. Briefly: Bias calculations between pathways (ΔΔLogR, bias factors). Particulars: compared to [Pyr1]apelin-13.
Description: β-Arrestin recruitment, β-arrestin mediated internalisation and cAMP assays were performed according to the manufacturer’s instructions (DiscoverX®, Fremont, CA) and as described previously [4].
All data are expressed as mean ± SEM values. Binding and cell-based experiments were performed in triplicate. For cell based assays, n-values are given as the number of replicates/number of experiments.
For series [7], the system named is anaesthetised male Sprague–Dawley rats. Briefly: Rat heart catheterisation (left ventricle pressure-volume catheter), intravenous injection. The class given is in vivo. Particulars: for increase in dP/dtMAX (cardiac contractility): cumulative bolus. The text has this: Male Sprague-Dawley rats (273 ± 6 g; […] Temperature was monitored throughout the surgical procedure using a rectal probe. Prior to the start of surgery, it was ensured that pain reflexes had ceased by use of a hind-paw pinch test. The surgery was completed as previously described. In brief, the right external jugular vein was cannulated, flushed with heparin solution (2%, 0.9% saline, pH5, Macopharma) and the right common carotid artery located. The catheter (Millar Inc., SPR-869) was calibrated using the MPVS Ultra system (ADIstruments) before being inserted into the carotid and advanced to the left ventricle. Once a stable pressure-volume loop could be observed, the catheter was left in place for ten minutes. […] The effects on pressure and volume were measured and the heart rate monitored to determine and maintain a suitable depth of anaesthesia. […] Data were acquired using the MPVS Ultra system (ADIstruments) and analysed using LabChart 8 (ADIstruments). Values for the maximal change in left ventricular systolic pressure (LVSP), stroke volume, cardiac output, contractility ([…] lusitropy ([…]) from baseline were calculated from the raw data and compared. Following completion of the measurements the animal was euthanised by exsanguination under high flow isoflurane.

Series [8] is described as follows: Analysis of rat plasma samples by LC-MS/MS. The note with it: approx. 10 min after last of three cumulative i.v. doses, heparinised samples, n = 6. It is filed as in vivo. The protocol: Analysis of plasma samples was performed by Peakdale Molecular (Chapel-en-la-Frith, UK). End-point blood samples were taken from rats (n = 6) following completion of three cumulative doses of CMF-019 (as described before), approximately 10 min after the last intravenous administration. The blood was collected in heparin-coated vials and spun at low speed (2000 g, 5 min), the plasma supernatant was removed and frozen. Quantitative analysis was performed using LC-MS/MS with metaprolol as an internal standard and CMF-019 to quantify CMF-019 in the samples.

Series [9] can be described thus: Thermodynamic solubility (Cyprotex). The note with it: pH 7.4, saline or isotonic, thermodynamic from solid, pH7.4, potassium salt. It is filed as physicochemical. As to the method:
as §1

On the set-up of series [10]: method as in earlier work. The note with it: saline at room temperature; cited from earlier work.
The mark [11] stands for this setting: 500 nmol i.v., anaesthetised rats.
Where [12] appears, read: 5000 nmol i.v., anaesthetised rats.

Entries after “also recorded” stand apart in the source; their conditions may differ. Counter-ions that a name gives are not always drawn. Like-named read-outs stand apart in the source and are kept apart here.

Description for native apelin receptor: as §2

For the molecule `CCC(CC)n1c(Cc2cccs2)nc2cc(C(=O)N[C@H](CC(=O)O)CC(C)C)ccc21` [CMF-019, (S)-3-[1-(1-Ethyl-propyl)-2-thiophen-2-ylmethyl-1H-benzoimidazole-5-carbonyl]-amino-5-methyl-hexanoic acid], the Ki (commonly the dissociation constant of the complex between target and ligand, obtained from inhibition or displacement) at apelin receptor [1] was 24.5 nM; on apelin receptor [3] it was 1.95 nM; at native apelin receptor it was 2.63 nM; on apelin receptor [4], 3.24 nM. Besides, the half-life (as a rule, how long it takes for the measured level to halve) in series [2] is 38 min. The “relative effectiveness (RE)” value is reported as 4.19 on apelin receptor [5] (cAMP), 7.19 × 10^−4 on apelin receptor [5] (internalisation) and 0.01 at apelin receptor [5] (β-arrestin). The figures for the ΔLogR on apelin receptor [5] (cAMP), on apelin receptor [5] (internalisation) and at apelin receptor [5] (β-arrestin) were 0.62 ± 0.16, −3.14 ± 0.19 and −1.98 ± 0.18, respectively. In addition, the results for the “bias factor (BF)” value at apelin receptor [6] (cAMP (Gαi) over internalisation) and at apelin receptor [6] (cAMP (Gαi) over β-arrestin) were 5828 and 398, respectively. In addition, the results for the ΔΔLogR on apelin receptor [6] (cAMP over internalisation), on apelin receptor [6] (cAMP over β-arrestin) and at apelin receptor [6] (β-arrestin over internalisation) were 3.77 ± 0.25, 2.60 ± 0.24 and 1.17 ± 0.26, respectively. Further, the “increase in cardiac output” value in series [7] (setting [11]) came out at 1210 ± 170 RVU/min. In [7] (setting [11]), the “increase in stroke volume” value amounted to 2.62 ± 0.31 RVU. The “increase in dP/dtMAX (cardiac contractility)” value was determined as 606 ± 112 mmHg/s in series [7] (setting [11]) and 833 ± 152 mmHg/s in series [7] (setting [12]). In addition, in series [7] (setting [12]), the “increase in LVSP” value is 6.22 ± 1.98 mmHg. Besides, the adverse effects result in series [7] (any of the concentrations administered (50–5000 nmol i.v.)) is on record as “No adverse effects were observed”. The “effect on dP/dtMIN (lusitropy)” value in series [7] (i.v., anaesthetised rats) was “Neither [Pyr^1]apelin-13 nor CMF-019 altered the dP/dtMIN; also recorded: did not alter”. In addition, the “effect on heart rate” value in series [7] (i.v., anaesthetised rats) is “without a change in heart rate”. For the same molecule, in series [8], the mean plasma concentration was roughly 25 µM.

In the case of `CCC(CC)n1c(Cc2cccs2)nc2cc(C(=O)N[C@H](CC(=O)O)CC(C)C)ccc21` [CMF-019 (potassium salt)], the solubility (commonly how much of the substance goes into solution per volume) in [9] came to 2090 µg/mL. Further, the mean plasma concentration in series [8] stood at 25.4 ± 2.5 µM.

Take `CC1=CC(=O)C(C2CCCCC2)=C/C1=N\OS(=O)(=O)c1ccccc1` [ML233]: the solubility in saline result in series [10] is “low solubility”.
